Data taken from publication PMC2882596 (Journal of the American Chemical Society, 2010).

Key:
Bacillus subtilus 168 = assay: MIC, serial dilution liquid culture, overnight in 96-well plates; type: cell-based, Bacillus subtilis; details: wild type scaffold variants, equivalent potency
Staph aureus strains = assay: Antibiotic potency of wild type thiocillin variants; type: cell-based, Staphylococcus aureus; details: wild type scaffold variants, equivalent potency

Substance: YM-266183
- antibiotic potency against B subtilis (Bacillus subtilus 168): submicromolar
- antibiotic potency against Staph aureus strains (Staph aureus strains): submicromolar

Substance: Micrococcin P2
- antibiotic potency against B subtilis (Bacillus subtilus 168): submicromolar
- antibiotic potency against Staph aureus strains (Staph aureus strains): submicromolar

Substance: Thiocillin I
- antibiotic potency against B subtilis (Bacillus subtilus 168): submicromolar
- antibiotic potency against Staph aureus strains (Staph aureus strains): submicromolar

Substance: Micrococcin P1
- antibiotic potency against B subtilis (Bacillus subtilus 168): submicromolar
- antibiotic potency against Staph aureus strains (Staph aureus strains): submicromolar
